US20020137929A1, “1 - (3-heterocyclylphenyl) isothiourea, -isourea, -guanidine and -amidine herbicidal agents” (Intellectual Property Department, BASF Aktiengesellschaft, priority 1998, published 2002)

What was measured:
ORYSAT (Rice, Tebonnet) = assay: Postemergence herbicidal evaluation; format: in vivo, Oryza sativa, (L.) Tebonnet; conditions: postemergence
Outline: (§1)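 Seedlings grown about two weeks were sprayed at 40 psi with compound dispersed in 50/50 acetone/water plus 0.5% TWEEN 20, at about 0.0156 to 0.500 kg/ha. Plants were kept in the greenhouse and scored 4–5 weeks later on a 0–9 visual scale against untreated controls.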

[1] = system: TRZAWR (Wheat, Winter, cv Riband); assay: Preemergence herbicidal evaluation; format: in vivo, Triticum aestivum; conditions: preemergence, rated 4-5 weeks after treatment, 0-9 scale
Outline: (§2)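 In this greenhouse assay, monocot and dicot seeds are planted in soil and treated prior to emergence with an aqueous acetone spray (about 0.0156-0.500 kg/ha). Plants are assessed visually against control on a 0-9 scale after 4-5 weeks.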

CYPSE (Flatsedge) [2] = assay: Preemergence weed control under flooded paddy conditions; format: in vivo, Cyperus serotinus; conditions: rated 3-4 weeks after treatment
Outline: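 First, seeds or propagules go into the top 0.5 cm of silt loam; next, water is held 1.5 to 3 cm over the soil; then compound (50/50 acetone/water) is pipetted into it at about 0.0313 to 0.500 kg/ha; finally plants are rated visually 0-9 after three to four weeks.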

ECHCG (Barnyardgrass) = assay: Preemergence herbicidal evaluation; format: in vivo, Echinochloa crus-galli; conditions: preemergence, rated 4-5 weeks after treatment, 0-9 scale
Outline: as §2

[3] = system: ECHORC (Watergrass (Calif.)); assay: Postemergence weed control under flooded paddy conditions; format: in vivo, Echinochloa oryzoides; conditions: postemergence weeds, rated 3 to 4 weeks after treatment
Outline: (§3)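 Containers holding 3–5 cm weeds and rice at 1.5–2.5 leaves are flooded to 1.5–3 cm above soil. Compound in 50/50 v/v aqueous/acetone is then added directly to the water, about 0.0313–0.500 kg/ha. Plants are kept in the greenhouse and rated 0–9 visually at 3–4 weeks.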

SETVI (Foxtail, Green) [4] = assay: Postemergence herbicidal evaluation; format: in vivo, Setaria viridis; conditions: postemergence
Outline: as §1

ZEAMX (Corn, Field) [5] = assay: Postemergence herbicidal evaluation; format: in vivo, Zea mays; conditions: postemergence
Outline: as §1

CYPIR (Rice Flatsedge) [6] = assay: Postemergence weed control under flooded paddy conditions; format: in vivo, Cyperus iria; conditions: postemergence weeds, rated 3 to 4 weeks after treatment
Outline: as §3

CYPIR (Rice Flatsedge) [7] = assay: Preemergence weed control under flooded paddy conditions; format: in vivo, Cyperus iria; conditions: rated 3-4 weeks after treatment
Outline: (§4)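 Seeds or propagules sown in silt loam kept flooded 1.5-3 cm; compounds in 50/50 acetone/water pipetted into flood water at about 0.0313 to 0.500 kg/ha. Greenhouse; visual 0-9 rating versus untreated control 3-4 weeks after treatment.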

[8] = system: SAGPY (Arrowhead (Pygmaea)); assay: Postemergence weed control under flooded paddy conditions; format: in vivo, Sagittaria pygmaea; conditions: postemergence weeds, rated 3 to 4 weeks after treatment
Outline: as §3

SETVI (Foxtail, Green) [9] = assay: Preemergence herbicidal evaluation; format: in vivo, Setaria viridis; conditions: preemergence, rated 4-5 weeks after treatment, 0-9 scale
Outline: as §2

CYPSE (Flatsedge) [10] = assay: Postemergence weed control under flooded paddy conditions; format: in vivo, Cyperus serotinus; conditions: postemergence weeds, rated 3 to 4 weeks after treatment
Outline: as §3

ZEAMX (Corn, Field) [11] = assay: Preemergence herbicidal evaluation; format: in vivo, Zea mays; conditions: preemergence, rated 4-5 weeks after treatment, 0-9 scale
Outline: as §2

[12] = system: ECHORC (Watergrass (Calif.)); assay: Preemergence weed control under flooded paddy conditions; format: in vivo, Echinochloa oryzoides; conditions: rated 3-4 weeks after treatment
Outline: as §4

CN1C(=O)C(CC(=O)NS(=O)(=O)c2ccccc2)SC1=Nc1cc(-n2c(=O)cc(C(F)(F)F)n(C)c2=O)c(F)cc1Cl (stereo not shown) [Compound 102, 2-{{2-Chloro-5-[3,6-dihydro-3-methyl-2,6-dioxo-4-(trifluoromethyl)-1(2H)-pyrimidinyl]-4-fluorophenyl}imino}-3-methyl-4-oxo-N-(phenylsulfonyl)-5-thiazolidineacetamide]
Herbicidal rating ORYSAT (ORYSAT (Rice, Tebonnet); rate 0.0156 kg/ha): 2.5
Herbicidal rating ORYSAT (ORYSAT (Rice, Tebonnet); rate 0.0313 kg/ha): 3.0
Herbicidal rating ORYSAT (ORYSAT (Rice, Tebonnet); rate 0.0625 kg/ha): 3.0
Herbicidal rating ORYSAT (ORYSAT (Rice, Tebonnet); rate 0.1250 kg/ha): 3.0
TRZAWR rating ([1]; 0.0156 kg/ha): 0.0
TRZAWR rating ([1]; 0.0313 kg/ha): 0.0
TRZAWR rating ([1]; 0.0625 kg/ha): 0.0
TRZAWR rating ([1]; 0.2500 kg/ha): 0.0
TRZAWR rating ([1]; 0.5000 kg/ha): 1.0
CYPSE herbicidal effect rating (CYPSE (Flatsedge) [2]; 0.2500 kg/ha): 0.0
CYPSE herbicidal effect rating (CYPSE (Flatsedge) [2]; 0.5000 kg/ha): 0.0
ECHCG rating (ECHCG (Barnyardgrass); 0.0156 kg/ha): 0.0
ECHCG rating (ECHCG (Barnyardgrass); 0.0313 kg/ha): 0.0
ECHCG rating (ECHCG (Barnyardgrass); 0.0625 kg/ha): 0.0
ECHCG rating (ECHCG (Barnyardgrass); 0.2500 kg/ha): 0.0
ECHCG rating (ECHCG (Barnyardgrass); 0.5000 kg/ha): 0.0
Herbicidal rating ECHORC ([3]; Rate 0.2500 kg/ha): 0.0
Herbicidal rating ECHORC ([3]; Rate 0.5000 kg/ha): 2.0
Herbicidal rating SETVI (SETVI (Foxtail, Green) [4]; rate 0.0156 kg/ha): 0.0
Herbicidal rating SETVI (SETVI (Foxtail, Green) [4]; rate 0.0313 kg/ha): 1.0
Herbicidal rating SETVI (SETVI (Foxtail, Green) [4]; rate 0.0625 kg/ha): 2.0
Herbicidal rating SETVI (SETVI (Foxtail, Green) [4]; rate 0.1250 kg/ha): 4.0
Herbicidal rating ZEAMX (ZEAMX (Corn, Field) [5]; rate 0.0156 kg/ha): 4.5
Herbicidal rating ZEAMX (ZEAMX (Corn, Field) [5]; rate 0.0313 kg/ha): 5.0
Herbicidal rating ZEAMX (ZEAMX (Corn, Field) [5]; rate 0.0625 kg/ha): 5.5
Herbicidal rating ZEAMX (ZEAMX (Corn, Field) [5]; rate 0.1250 kg/ha): 6.5
Herbicidal rating CYPIR (CYPIR (Rice Flatsedge) [6]; Rate 0.2500 kg/ha): 2.0
Herbicidal rating CYPIR (CYPIR (Rice Flatsedge) [6]; Rate 0.5000 kg/ha): 6.0
CYPIR herbicidal effect rating (CYPIR (Rice Flatsedge) [7]; 0.2500 kg/ha): 2.0
CYPIR herbicidal effect rating (CYPIR (Rice Flatsedge) [7]; 0.5000 kg/ha): 6.0
Herbicidal rating SAGPY ([8]; Rate 0.2500 kg/ha): 0.0
Herbicidal rating SAGPY ([8]; Rate 0.5000 kg/ha): 0.0
SETVI rating (SETVI (Foxtail, Green) [9]; 0.0156 kg/ha): 1.0
SETVI rating (SETVI (Foxtail, Green) [9]; 0.0313 kg/ha): 1.0
SETVI rating (SETVI (Foxtail, Green) [9]; 0.0625 kg/ha): 0.0
SETVI rating (SETVI (Foxtail, Green) [9]; 0.2500 kg/ha): 0.0
SETVI rating (SETVI (Foxtail, Green) [9]; 0.5000 kg/ha): 1.0
Herbicidal rating CYPSE (CYPSE (Flatsedge) [10]; Rate 0.2500 kg/ha): 0.0
Herbicidal rating CYPSE (CYPSE (Flatsedge) [10]; Rate 0.5000 kg/ha): 0.0
ZEAMX rating (ZEAMX (Corn, Field) [11]; 0.0156 kg/ha): 0.0
ZEAMX rating (ZEAMX (Corn, Field) [11]; 0.0313 kg/ha): 0.0
ZEAMX rating (ZEAMX (Corn, Field) [11]; 0.0625 kg/ha): 0.0
ZEAMX rating (ZEAMX (Corn, Field) [11]; 0.2500 kg/ha): 0.0
ZEAMX rating (ZEAMX (Corn, Field) [11]; 0.5000 kg/ha): 1.0
ECHORC herbicidal effect rating ([12]; 0.2500 kg/ha): 0.0
ECHORC herbicidal effect rating ([12]; 0.5000 kg/ha): 2.0

C=CCN1C(=O)C(CC(=O)NS(=O)(=O)CC)SC1=Nc1cc(-n2c(=O)cc(C(F)(F)F)n(C)c2=O)c(F)cc1Cl (stereo not shown) [Compound 104, 3-Allyl-2-{{2-chloro-5-[3,6-dihydro-3-methyl-2,6-dioxo-4-(trifluoromethyl)-1(2H)-pyrimidinyl]-4-fluorophenyl}imino}-N-(ethylsulfonyl)-4-oxo-5-thiazolidineacetamide]
Herbicidal rating ORYSAT (ORYSAT (Rice, Tebonnet); rate 0.0156 kg/ha): 0.0
Herbicidal rating ORYSAT (ORYSAT (Rice, Tebonnet); rate 0.0313 kg/ha): 0.5
Herbicidal rating ORYSAT (ORYSAT (Rice, Tebonnet); rate 0.0625 kg/ha): 1.0
Herbicidal rating ORYSAT (ORYSAT (Rice, Tebonnet); rate 0.1250 kg/ha): 2.0
TRZAWR rating ([1]; 0.0625 kg/ha): 0.0
TRZAWR rating ([1]; 0.1250 kg/ha): 0.0
TRZAWR rating ([1]; 0.2500 kg/ha): 0.0
TRZAWR rating ([1]; 0.5000 kg/ha): 1.0
CYPSE herbicidal effect rating (CYPSE (Flatsedge) [2]; 0.0313 kg/ha): 0.0
CYPSE herbicidal effect rating (CYPSE (Flatsedge) [2]; 0.1250 kg/ha): 0.0
CYPSE herbicidal effect rating (CYPSE (Flatsedge) [2]; 0.2500 kg/ha): 0.0
ECHCG rating (ECHCG (Barnyardgrass); 0.0625 kg/ha): 0.0
ECHCG rating (ECHCG (Barnyardgrass); 0.1250 kg/ha): 0.0
ECHCG rating (ECHCG (Barnyardgrass); 0.2500 kg/ha): 1.0
ECHCG rating (ECHCG (Barnyardgrass); 0.5000 kg/ha): 1.0
Herbicidal rating ECHORC ([3]; Rate 0.0313 kg/ha): 4.0
Herbicidal rating ECHORC ([3]; Rate 0.0625 kg/ha): 5.0
Herbicidal rating ECHORC ([3]; Rate 0.1250 kg/ha): 6.0
Herbicidal rating ECHORC ([3]; Rate 0.2500 kg/ha): 6.0
Herbicidal rating SETVI (SETVI (Foxtail, Green) [4]; rate 0.0156 kg/ha): 0.0
Herbicidal rating SETVI (SETVI (Foxtail, Green) [4]; rate 0.0313 kg/ha): 0.0
Herbicidal rating SETVI (SETVI (Foxtail, Green) [4]; rate 0.0625 kg/ha): 3.0
Herbicidal rating SETVI (SETVI (Foxtail, Green) [4]; rate 0.1250 kg/ha): 4.0
Herbicidal rating ZEAMX (ZEAMX (Corn, Field) [5]; rate 0.0156 kg/ha): 4.5
Herbicidal rating ZEAMX (ZEAMX (Corn, Field) [5]; rate 0.0313 kg/ha): 4.5
Herbicidal rating ZEAMX (ZEAMX (Corn, Field) [5]; rate 0.0625 kg/ha): 6.0
Herbicidal rating ZEAMX (ZEAMX (Corn, Field) [5]; rate 0.1250 kg/ha): 8.0
Herbicidal rating CYPIR (CYPIR (Rice Flatsedge) [6]; Rate 0.0313 kg/ha): 5.0
Herbicidal rating CYPIR (CYPIR (Rice Flatsedge) [6]; Rate 0.0625 kg/ha): 9.0
Herbicidal rating CYPIR (CYPIR (Rice Flatsedge) [6]; Rate 0.1250 kg/ha): 9.0
Herbicidal rating CYPIR (CYPIR (Rice Flatsedge) [6]; Rate 0.2500 kg/ha): 9.0
CYPIR herbicidal effect rating (CYPIR (Rice Flatsedge) [7]; 0.0313 kg/ha): 5.0
CYPIR herbicidal effect rating (CYPIR (Rice Flatsedge) [7]; 0.0625 kg/ha): 9.0
CYPIR herbicidal effect rating (CYPIR (Rice Flatsedge) [7]; 0.1250 kg/ha): 9.0
CYPIR herbicidal effect rating (CYPIR (Rice Flatsedge) [7]; 0.2500 kg/ha): 9.0
Herbicidal rating SAGPY ([8]; Rate 0.0313 kg/ha): 6.0
Herbicidal rating SAGPY ([8]; Rate 0.0625 kg/ha): 9.0
Herbicidal rating SAGPY ([8]; Rate 0.1250 kg/ha): 9.0
Herbicidal rating SAGPY ([8]; Rate 0.2500 kg/ha): 9.0
SETVI rating (SETVI (Foxtail, Green) [9]; 0.0625 kg/ha): 0.0
SETVI rating (SETVI (Foxtail, Green) [9]; 0.1250 kg/ha): 0.0
SETVI rating (SETVI (Foxtail, Green) [9]; 0.2500 kg/ha): 0.0
SETVI rating (SETVI (Foxtail, Green) [9]; 0.5000 kg/ha): 6.0
Herbicidal rating CYPSE (CYPSE (Flatsedge) [10]; Rate 0.0313 kg/ha): 0.0
Herbicidal rating CYPSE (CYPSE (Flatsedge) [10]; Rate 0.1250 kg/ha): 0.0
Herbicidal rating CYPSE (CYPSE (Flatsedge) [10]; Rate 0.2500 kg/ha): 0.0
ZEAMX rating (ZEAMX (Corn, Field) [11]; 0.0625 kg/ha): 0.0
ZEAMX rating (ZEAMX (Corn, Field) [11]; 0.1250 kg/ha): 0.0
ZEAMX rating (ZEAMX (Corn, Field) [11]; 0.2500 kg/ha): 0.0
ZEAMX rating (ZEAMX (Corn, Field) [11]; 0.5000 kg/ha): 2.0
ECHORC herbicidal effect rating ([12]; 0.0313 kg/ha): 4.0
ECHORC herbicidal effect rating ([12]; 0.0625 kg/ha): 5.0
ECHORC herbicidal effect rating ([12]; 0.1250 kg/ha): 6.0
ECHORC herbicidal effect rating ([12]; 0.2500 kg/ha): 6.0
